Assay [1] relates to HBV replication in HepG2-2.2.15 cells. Kind of assay: Dot-blot assay of HBV replication (HBV DNA levels). The note with it: Hepatitis B virus, HepG2 2.2.15, 144 h, read-out: Activity in dot-blot-assay (EC50, reduction in HBV DNA levels).
Procedure: In the first anti-viral assay, the ability of compounds to inhibit HBV replication in an HBV-producing hepatoma cell line using the dot-blot method is evaluated.
Briefly, confluent monolayers of HepG2-2.2.15 cells are incubated with complete medium containing various concentrations of a test compound. Three days later, the culture medium is replaced with fresh medium containing the appropriately diluted test compound. Six days following the initial administration of the test compound, the cell culture supernatant is collected, and cell lysis is performed. The samples are applied onto Nylos membranes and DNA is immobilized to the membrane by UV cross-linking. After pre-hybridization, the HBV probe is added and the hybridization is performed overnight. The membranes are exposed to the Kodak films; antiviral activity is calculated from the reduction in HBV DNA levels (EC50).
In the first anti-viral assay, the ability of compounds to inhibit HBV replication in an HBV-producing hepatoma cell line using the dot-blot method was evaluated.
Confluent monolayers of HepG2-2.2.15 cells were incubated with complete medium containing various concentrations of a test compound. Three days later, the culture medium was replaced with fresh medium containing the appropriately diluted test compound. Six days following the initial administration of the test compound, the cell culture supernatant was collected, and cell lysis was performed. The samples were applied onto Nylos membranes and DNA was immobilized to the membrane by UV cross-linking. After pre-hybridization, the HBV probe was added and the hybridization was performed overnight. The membranes were exposed to the Kodak films; antiviral activity was calculated from the reduction in HBV DNA levels (EC50).
Assay [2] deals with T1, HBV C150Bo capsid protein (HBV CA protein) (Hepatitis B virus genotype D subtype adw, UniProt P03147, C107A/C48A/C61A/R150C).
T1 construct: amino acids 1-150, C49A, C61A, C107A, 150C; made in house; host or cells: E. coli
Kind of assay: HBV assembly assay (fluorescence quenching in vitro capsid assembly). In kind it is biochemical. The text has this: The fluorescence quenching in vitro assembly HBV assay was developed according to a method described by Zlotnick and coworkers (Nature Biotechnology 2006, 24:358). The assay is based on the observation that the C-termini of the HBV core protein cluster together during capsid formation. This assay utilizes a mutant C150 HBV capsid protein where all wild-type cysteines are mutated to alanines, but a C-terminal cysteine residue is preserved and is labeled with fluorescent BoDIPY-FL dye. […] Thus, the assay measures the ability and potency of test compounds to modulate capsid assembly by monitoring the fluorescence of the labeled capsid C150Bo protein.
In a typical assay, the mutant HBV C150 protein (amino acids 1-150, C49A, C61A, C107A, 150C) is cloned into a T7 RNA-polymerase based expression vector, expressed in E. coli and purified to homogeneity as a dimer. The purified HBV core protein is desalted and labeled with BODIPY-FL Dye.
In a non-limiting embodiment, the assembly assay is conducted in 96-well plate format. The assembly reactions are carried out in 50 mM Hepes buffer, pH 7.5 and 150 mM NaCl. The compounds are pre-incubated with the HBV CA protein for 15 min, and the assembly reactions are initiated by addition of NaCl. The reaction is allowed to continue for 1 hour at room temperature.
To determine the effect on capsid assembly, each test compound is initially screened at 4 different concentrations: 10 μM, 3 μM, 1 μM and 0.3 μM in duplicates. […] Identified primary hits are confirmed in follow-up studies as described elsewhere herein. […] EC50 values for test compounds are determined via analysis of the dose-response curve.
Selected compounds of the invention were assayed in the HBV assembly assay, as described elsewhere herein. The assembly assay was conducted in 96-well plate format. The assembly reactions were carried out in 50 mM Hepes buffer, pH 7.5 and 150 mM NaCl. The compounds were pre-incubated with the HBV CA protein for 15 min, and the assembly reactions were initiated by addition of NaCl. The reaction was allowed to continue for 1 hour at room temperature.
To determine the effect on capsid assembly, each test compound was initially screened at 4 different concentrations: 10 μM, 3 μM, 1 μM and 0.3 μM in duplicates.

In general, EC50 refers to the concentration needed to bring the measured effect to its halfway point.

T1 sequence (P03147 1-150 C48A/C61A/C107A/R150C): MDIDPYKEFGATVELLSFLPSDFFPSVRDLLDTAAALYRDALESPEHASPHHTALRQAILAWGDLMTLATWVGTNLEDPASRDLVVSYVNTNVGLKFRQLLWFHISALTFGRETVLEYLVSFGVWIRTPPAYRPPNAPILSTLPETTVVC

As to `O=C(Nc1ccc(F)c(Cl)c1)c1cc(S(=O)(=O)N2CCC(O)CC2)cc2[nH]ccc12` [Compound 949], the 50% effective concentration (EC50) in assay [1] and in assay [2] was < 10 µM throughout.

Take `O=C(Nc1cc(F)c(F)c(F)c1)c1cc(S(=O)(=O)N2CCC(O)CC2)cc2[nH]ccc12` [Compound 1287]: the EC50 in assay [2] was < 10 µM.

Turning to `O=C(Nc1ccc(F)c(F)c1)c1cc(S(=O)(=O)N2CCC(O)CC2)cc2[nH]ccc12` [Compound 1288], the EC50 in assay [1] is < 10 µM.

With `O=C(Nc1ccc(F)c(Cl)c1)c1cc(S(=O)(=O)N2CCC(CO)C(O)C2)cc2[nH]ccc12` (stereo not shown) [Compound 1290], the EC50 in assay [1] is < 10 µM.

As to `O=C(Nc1cc(F)c(F)c(F)c1)c1cc(S(=O)(=O)N2CCC(CO)C(O)C2)cc2[nH]ccc12` (stereo not shown) [Compound 1291], in assay [2], the EC50 was < 10 µM.

Turning to `O=C(Nc1ccc(F)c(F)c1)c1cc(S(=O)(=O)N2CCC(CO)C(O)C2)cc2[nH]ccc12` (stereo not shown) [Compound 1292], the concentration giving a half-maximal response (EC50) in assay [2] was < 10 µM.

Regarding `O=C(Nc1ccc(F)c(Cl)c1)c1cc(S(=O)(=O)N2CC(O)C(F)C2)cc2[nH]ccc12` (stereo not shown) [Compound 1294], the EC50 in assay [1] and in assay [2] was < 10 µM in each case.

As for `O=C(Nc1ccc(F)c(F)c1)c1cc(S(=O)(=O)N2CC(O)C(F)C2)cc2[nH]ccc12` (stereo not shown) [Compound 1296], the EC50 in assay [2] is < 10 µM.

Regarding `O=C(Nc1ccc(F)c(Cl)c1)c1cc(S(=O)(=O)N2CC(O)C2)cc2[nH]ccc12` [Compound 1298], the EC50 in assay [1] is < 10 µM.

Turning to `O=C(Nc1cc(F)c(F)c(F)c1)c1cc(S(=O)(=O)N2CC(O)C2)cc2[nH]ccc12` [Compound 1299], in assay [2], the 50% effective concentration (EC50) was < 10 µM.

In the case of `O=C(Nc1ccc(F)c(F)c1)c1cc(S(=O)(=O)N2CC(O)C2)cc2[nH]ccc12` [Compound 1300], the half-maximal effective concentration (EC50) in assay [1] and in assay [2] was < 10 µM throughout.

As to `O=C(Nc1ccc(F)c(Cl)c1)c1cc(S(=O)(=O)N2CCC(O)(CO)CC2)cc2[nH]ccc12` [Compound 1302], in assay [1], the EC50 was < 10 µM.

For `O=C(Nc1cc(F)c(F)c(F)c1)c1cc(S(=O)(=O)N2CCC(O)(CO)CC2)cc2[nH]ccc12` [Compound 1303], in assay [2], the EC50 was < 10 µM.

With `O=C(Nc1ccc(F)c(F)c1)c1cc(S(=O)(=O)N2CCC(O)(CO)CC2)cc2[nH]ccc12` [Compound 1304], the EC50 in assay [2] was < 10 µM.

Consider `O=C(Nc1ccc(F)c(Cl)c1)c1cc(S(=O)(=O)N2CCC(O)CC2)c2[nH]cnc2c1` [Compound 1472], for which, in assay [1], the EC50 was < 10 µM.

In the case of `NC1CCN(S(=O)(=O)c2cc(C(=O)Nc3cc(F)c(F)c(F)c3)c3cc[nH]c3c2)CC1` [Compound 1508], the 50% effective concentration (EC50) in assay [1] and in assay [2] was < 10 µM in each case.

Consider `COCC1(O)CCN(S(=O)(=O)c2cc(C(=O)Nc3cc(F)c(F)c(F)c3)c3cc[nH]c3c2)CC1` [Compound 1533], for which the half-maximal effective concentration (EC50) in assay [1] and in assay [2] was < 10 µM throughout.

On to `COCC1(O)CCN(S(=O)(=O)c2cc(C(=O)Nc3ccc(F)c(Cl)c3)c3cc[nH]c3c2)CC1` [Compound 1534], for which the EC50 in assay [2] was < 10 µM.

Consider `COCC1(O)CCN(S(=O)(=O)c2cc(C(=O)Nc3ccc(F)c(F)c3)c3cc[nH]c3c2)CC1` [Compound 1535], for which the EC50 in assay [1] and in assay [2] was < 10 µM each time.

For `COC1(CO)CCN(S(=O)(=O)c2cc(C(=O)Nc3cc(F)c(F)c(F)c3)c3cc[nH]c3c2)CC1` [Compound 1536], in assay [2], the EC50 was < 10 µM.

Turning to `COC1(CO)CCN(S(=O)(=O)c2cc(C(=O)Nc3ccc(F)c(Cl)c3)c3cc[nH]c3c2)CC1` [Compound 1537], in assay [1], the EC50 was < 10 µM.

With `COC(=O)C1=C(C)NC(c2ccccn2)=NC1c1ccc(F)cc1Cl` (stereo not shown) [HAP-1, reference compound], the “EC50 of control compounds in assembly assay” value in assay [2] (control compounds) is “consistent with the literature”.

The record behind these values is patent US9579313B2, “Hepatitis B antiviral agents” (Novira Therapeutics, Inc., priority 2013, dated 2017).
